Each block holds one molecule with its values, some of them ahead of it.
Legend:
[1] = target: T1, EPAC1 (Homo sapiens, UniProt O95398); assay: Cellular Rap1 assay (ELISA for Rap1-GTP) in HEK293/hEPAC1/Flag-Rap1 cells; assay type: cell-based; conditions: for AC50: 10 min stimulation, read-out: apparent half maximal activation constant (AC50), Rap1-GTP levels
T1 construct: HEK293 cell lines stably expressing Flag-tagged Rap1A and full-length EPAC1 or EPAC2 are proposed; expressed in transfected cells
T1 sequence (O95398 1-923): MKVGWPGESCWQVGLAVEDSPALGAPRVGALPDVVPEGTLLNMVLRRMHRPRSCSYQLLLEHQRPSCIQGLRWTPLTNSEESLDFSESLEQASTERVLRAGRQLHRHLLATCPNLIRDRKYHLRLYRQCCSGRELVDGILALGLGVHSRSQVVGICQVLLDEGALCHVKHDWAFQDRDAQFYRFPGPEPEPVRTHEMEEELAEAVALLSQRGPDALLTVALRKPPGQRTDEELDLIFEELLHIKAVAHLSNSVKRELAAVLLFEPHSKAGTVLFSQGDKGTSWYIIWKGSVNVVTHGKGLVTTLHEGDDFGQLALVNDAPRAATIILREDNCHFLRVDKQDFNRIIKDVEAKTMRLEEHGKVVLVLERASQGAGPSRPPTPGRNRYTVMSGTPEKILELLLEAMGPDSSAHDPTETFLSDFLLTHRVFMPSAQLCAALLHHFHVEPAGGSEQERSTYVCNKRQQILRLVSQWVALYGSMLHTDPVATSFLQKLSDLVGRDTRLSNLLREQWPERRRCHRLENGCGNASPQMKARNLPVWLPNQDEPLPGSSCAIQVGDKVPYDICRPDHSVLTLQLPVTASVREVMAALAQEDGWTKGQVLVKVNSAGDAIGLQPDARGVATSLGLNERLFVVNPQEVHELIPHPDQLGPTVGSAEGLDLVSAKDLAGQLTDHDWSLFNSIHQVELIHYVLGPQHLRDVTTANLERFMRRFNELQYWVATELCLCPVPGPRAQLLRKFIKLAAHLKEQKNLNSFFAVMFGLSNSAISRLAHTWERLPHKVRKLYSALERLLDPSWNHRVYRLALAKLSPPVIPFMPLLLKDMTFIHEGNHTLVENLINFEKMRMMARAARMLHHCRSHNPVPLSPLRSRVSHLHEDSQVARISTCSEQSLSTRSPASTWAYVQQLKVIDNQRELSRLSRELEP
From the text: To develop a cell-based, isoform-specific EPAC activation assay, HEK293 cell lines stably expressing Flag-tagged Rap1A and full-length EPAC1 or EPAC2 are proposed. HEK293 cells express minimal endogenous levels of EPAC1 and EPAC2 and have been used as host cells for evaluating the cellular activities of ectopically expressed EPAC proteins in an isoform-specific manner. Activation of EPAC1 or EPAC2 in these cell lines by cAMP elevating agents leads to the accumulation of Flag-Rap1-GTP, which can be captured by RalGDS-RBD immobilized in a nickel-coated 96-well microplate. The levels of active Flag-Rap1-GTP protein can be quantitatively monitored using a specific anti-FLAG antibody and a HRP conjugated secondary antibody in a manner similar to that of a conventional ELISA assay (Fig. 1).
HEK293 (ATCC) cells were grown in MEM medium supplemented with 10% heat-inactivated FBS (Invitrogen), at 37 °C, 5% CO2. HEK293 stable cell lines expressing Flag-tagged human Rap1A (Flag-hRap1A) alone and co-expressing human EPAC1 (hEPAC1) and Flag-hRap1A or mouse EPAC2 (mEPAC2) and Flag-hRap1A were established by sequential transfections using Lipofectamine 2000 reagent (Invitrogen) with mammalian expression vectors, first with pIRES2-EGFP containing Flag-hRap1A and followed by pIRES‐hyg2 containing hEPAC1 or mEPAC2. Individual stable cell clones were selected and maintained in MEM containing 500 µg/ml G418 for pIRES2-EGFP and 100 µg/ml hygromycin B for pIRES‐hyg2, respectively.
HEK293 cells co-expressing hEPAC1/Flag-tagged hRap1A or mEPAC2/Flag-tagged hRap1A were seeded in 12-well plates (Corning #3513) at an initial confluency of 400,000 cell/well and incubate at 37 °C, 5% CO2, in MEM medium with 10% FBS, for 24 hours. Cells were then rinsed with HBSS and cultured in FBS-free MEM medium for another 16 hours. If necessary cells were first pretreated with various concentration of antagonists or vehicle at 37 °C for 30 min. Otherwise, the cells were stimulated with various concentrations of agonists or vehicle controls at 37 °C for 10 min, then immediately rinsed with ice-cold PBS and lysed in 500 µl ice-cold lysis buffer containing 20 mM Tris-HCl, pH 7.4, 150 mM NaCl, 10 mM MgCl2, 1% IGEPAL CA-630 and proteinase inhibitors cocktail. Cell extracts were clarified by centrifugation at 18,000 RCF for 20 min and their protein concentrations were determined by DC protein assay kit. 100 µl of properly diluted cell lysates containing 0 to 50 µg total proteins were added to nickel coated 96-well plate strips that were pre-coated with 200 µg of RalGDS-RBD-His6 proteins and incubated at 4 °C for 2 hours with gentle rocking. After washing with 100 µl ice-cold ELISA buffer (20 mM Tris-HCl, pH 7.4, 150 mM NaCl, 10 mM MgCl2 and 0.1% Tween-20) for 3 times, 100 µl mouse anti-Flag antibody (1:5000 in ELISA buffer) was added into each well and incubated at 4 °C for 1 hour with gentle shaking. Following three washes with 100 µl ice-cold ELISA buffer, 100 µl anti-mouse HRP-conjugated antibodies (1:3000 in ELISA buffer) were added into each well. After incubation at room temperature for 1 hour with gentle shaking, the wells were washed three times with 100 µl ELISA buffer. 200 µl of OPD substrate was added into each well and absorbance signal at 450 nm was monitored using an M2 microplate reader (Molecular Devices) for 30 min with 1-min intervals. 10-min data points were used for quantification.

[2] = target: T2, EPAC2 (Mus musculus, UniProt Q9EQZ6); assay: Cellular Rap1 assay (ELISA for Rap1-GTP) in HEK293/mEPAC2/Flag-Rap1 cells; assay type: cell-based
T2 construct: HEK293 cell lines stably expressing Flag-tagged Rap1A and full-length EPAC1 or EPAC2 are proposed; expressed in transfected cells
T2 sequence (Q9EQZ6 1-1011): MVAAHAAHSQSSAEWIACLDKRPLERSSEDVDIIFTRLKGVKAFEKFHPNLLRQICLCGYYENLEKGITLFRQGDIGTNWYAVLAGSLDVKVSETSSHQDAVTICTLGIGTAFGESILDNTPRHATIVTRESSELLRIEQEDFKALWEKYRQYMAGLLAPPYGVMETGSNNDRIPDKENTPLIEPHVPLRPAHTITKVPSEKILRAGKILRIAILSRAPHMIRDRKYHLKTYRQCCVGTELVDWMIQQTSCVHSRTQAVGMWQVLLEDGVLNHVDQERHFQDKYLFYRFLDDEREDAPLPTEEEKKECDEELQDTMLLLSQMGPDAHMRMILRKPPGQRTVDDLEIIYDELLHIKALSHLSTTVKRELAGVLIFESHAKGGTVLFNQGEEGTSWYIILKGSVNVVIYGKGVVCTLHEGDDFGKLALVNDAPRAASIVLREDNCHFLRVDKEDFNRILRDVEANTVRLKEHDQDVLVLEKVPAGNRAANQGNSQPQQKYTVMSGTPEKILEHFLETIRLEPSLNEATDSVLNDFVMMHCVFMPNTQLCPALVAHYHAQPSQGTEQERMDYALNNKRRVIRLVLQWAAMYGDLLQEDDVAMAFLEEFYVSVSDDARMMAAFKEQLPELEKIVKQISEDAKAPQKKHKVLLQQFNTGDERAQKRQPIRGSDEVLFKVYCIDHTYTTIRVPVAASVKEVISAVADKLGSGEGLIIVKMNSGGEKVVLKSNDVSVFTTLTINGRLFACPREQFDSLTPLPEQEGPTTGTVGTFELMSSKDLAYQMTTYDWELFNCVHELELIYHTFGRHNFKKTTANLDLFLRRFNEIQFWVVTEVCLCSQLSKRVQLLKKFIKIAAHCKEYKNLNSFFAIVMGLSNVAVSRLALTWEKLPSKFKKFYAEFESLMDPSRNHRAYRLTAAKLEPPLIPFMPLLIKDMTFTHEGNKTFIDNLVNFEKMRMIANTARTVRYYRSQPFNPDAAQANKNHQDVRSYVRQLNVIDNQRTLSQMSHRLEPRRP
Method: HEK293 cells co-expressing hEPAC1/Flag-tagged hRap1A or mEPAC2/Flag-tagged hRap1A were seeded in 12-well plates (Corning #3513) at an initial confluency of 400,000 cell/well and incubate at 37 °C, 5% CO2, in MEM medium with 10% FBS, for 24 hours. Cells were then rinsed with HBSS and cultured in FBS-free MEM medium for another 16 hours. If necessary cells were first pretreated with various concentration of antagonists or vehicle at 37 °C for 30 min. Otherwise, the cells were stimulated with various concentrations of agonists or vehicle controls at 37 °C for 10 min, then immediately rinsed with ice-cold PBS and lysed in 500 µl ice-cold lysis buffer containing 20 mM Tris-HCl, pH 7.4, 150 mM NaCl, 10 mM MgCl2, 1% IGEPAL CA-630 and proteinase inhibitors cocktail. Cell extracts were clarified by centrifugation at 18,000 RCF for 20 min and their protein concentrations were determined by DC protein assay kit. […] 200 µl of OPD substrate was added into each well and absorbance signal at 450 nm was monitored using an M2 microplate reader (Molecular Devices) for 30 min with 1-min intervals. 10-min data points were used for quantification.

[3] = system: EPAC2; set-up: method as in PMID 23091014, PMID 23286832; conditions: in the presence of 20 µM cAMP; selective for EPAC2, not EPAC1; cited from earlier work
[4] = target: T1, EPAC1; assay: Conventional affinity pull-down assay of Rap1-GTP using GST-RalGDS-RBD, immunoblot; assay type: cell-based; conditions: HEK293/hEPAC1/Flag-Rap1 cells, various concentrations
From the text: Forskolin is a labdane diterpene natural product, commonly used a biochemical tool to stimulate intracellular levels of cAMP[31]. Treatment of HEK293/hEPAC1/Flag-Rap1 or HEK293/mEPAC2/ Flag-Rap1 cells with forskolin led to a dose-dependent increase in Rap1-GTP levels in both cell lines (Fig. 3A,B). […] Since forskolin-mediated increase in intracellular cAMP activates both EPAC and PKA, to ensure that the signals observed in our assay were not in part due to the activation of PKA, control experiments in the presence of a PKA-specific inhibitor, H89, were performed.
Figure S1. Dose-dependent cellular activation of EPAC1 by forskolin. Relative Rap1-GTP levels, as monitored by affinity pull-down assay using GST-RalGDS-RBD, in HEK293 cells overexpressing EPAC1 stimulated by various concentrations of forskolin. Inset: representative immunoblot image of Rap1-GTP levels under basal and forskolin-stimulated conditions.

Structure (SMILES): CO[C@@H]1[C@@H]2OP(=O)(OCOC(C)=O)OC[C@H]2O[C@H]1n1c(Sc2ccc(Cl)cc2)nc2c(N)ncnc21 (stereo partly shown) [007-AM, 8-pCPT-2-O-Me-cAMP-AM]
AC50 ([1]; HEK293/hEPAC1/Flag-Rap1 cells): 16.5 ± 3.1 nM
dose-dependent activation of EPAC2 (Rap1-GTP levels) ([2]; up to 10 µM): did not reach plateau

Structure (SMILES): Cc1ccc(S(=O)(=O)c2c(C)cc(C)cc2C)cc1 [ESI-05]
inhibition of cellular EPAC1 activation ([1]; stimulated by 1 µM Forskolin, HEK293/hEPAC1/Flag-Rap1 cells): no detectable activity
potency of EPAC2 inhibition [3]: sub-micromolar

Now from value to molecule:

AC50 ([1]; HEK293/hEPAC1/Flag-Rap1 cells): 226 ± 57 nM
AC50 ([2]; 10 min stimulation, read-out: apparent half maximal activation constant (AC50), Rap1-GTP levels): 137 ± 36 nM
activation of Rap1 (relative Rap1-GTP levels, pull-down) [4]: dose-dependent activation
Structure (SMILES): C=C[C@@]1(C)CC(=O)[C@]2(O)[C@@]3(C)[C@@H](O)CCC(C)(C)[C@@H]3[C@H](O)[C@H](OC(C)=O)[C@@]2(C)O1 [Forskolin]

effects on basal and forskolin-induced Rap1 activities ([1]; 10 µM H89, HEK293 cells overexpressing EPAC1 (Fig. S2)): minimal
Structure (SMILES): O=S(=O)(NCCNC/C=C/c1ccc(Br)cc1)c1cccc2cnccc12 [H89]

IC50 ([1]; stimulated by 1 µM Forskolin, 30 min pretreatment, HEK293/hEPAC1/Flag-Rap1 cells, read-out: apparent IC50, inhibition of cellular EPAC1 activity): 4900 ± 600 nM
IC50 ([2]; stimulated by 1 µM Forskolin, 30 min pretreatment, read-out: apparent IC50, inhibition of cellular EPAC2 activity): 9600 ± 1600 nM
Structure (SMILES): CC(C)(C)c1cc(C(=O)/C(C#N)=N/Nc2cc(Cl)c(Cl)c(Cl)c2)no1 [NY-0123]

From paper PMC5524698, “A cell-based, quantitative and isoform-specific assay for exchange proteins directly activated by cAMP” (Scientific Reports, 2017)
